Source: PMC6915728 (Nature Communications, 2019)
Read-outs that look alike come from different tables or passages of the source.

What was measured:
[1] = system: bacterial species in which the gene showed activity; details: cited from earlier work
[2] = system: E. coli BW25113 ΔmlaD; assay: MIC, serial broth dilution, mlaD knockout strain vs wild type; format: cell-based, Escherichia coli
[3] = system: AMP-evolved E. coli lines; details: ref Spohn et al 2019, cited from earlier work
From the text: Supplement 41467_2019_13618_MOESM13_ESM.xlsx, sheet "Figure 6 and S15" | column: A comprehensive dataset of antimicrobial susceptibility of AMP-adapted lines to antimicrobial peptides (AMPs).

[4] = Bordetella pertussis, ref http://www.ncbi.nlm.nih.gov/pmc/articles/PMC4136009/
[5] = Staphylococcus aureus, ref http://onlinelibrary.wiley.com/doi/10.1111/j.1365-2958.2007.05986.x/epdf

Sequence: LLGDFFRKSKEKIGKEFKRIVQRIKDFLRNLVPRTES [LL37, LL-37 human cathelicidin, human host-defense peptide; disrupts cell membrane; cluster C2]
- Gene that modulates bacterial susceptibility to the AMP [1, 4]: lgmA, IgmB, IgmC
- Gene that modulates bacterial susceptibility to the AMP ([1]; Enterobacteriaceae, ref https://www.ncbi.nlm.nih.gov/pmc/articles/PMC3264287/, https://onlinelibrary.wiley.com/doi/full/10.1111/j.1348-0421.2010.00238.x, https://jb.asm.org/content/180/15/4002.full): ompT
- Gene that modulates bacterial susceptibility to the AMP ([1]; Enterococcus faecalis, ref http://www.jbc.org/content/279/51/52820.full.pdf): sprE
- Gene that modulates bacterial susceptibility to the AMP ([1]; Enterococcus faecalis, ref https://www.ncbi.nlm.nih.gov/pmc/articles/PMC2976315/): gelE
- Gene that modulates bacterial susceptibility to the AMP ([1]; Group A Streptococcus pyogenes, ref http://www.ncbi.nlm.nih.gov/pmc/articles/PMC3241932/pdf/nihms218493.pdf): emm1
- Gene that modulates bacterial susceptibility to the AMP ([1]; Neisseria meningitidis, gene siaC, ref http://jb.asm.org/content/191/12/3861.full.pdf+html): siaC
- Gene that modulates bacterial susceptibility to the AMP ([1]; Neisseria meningitidis, gene siaD, ref http://jb.asm.org/content/191/12/3861.full.pdf+html): siaD
- Gene that modulates bacterial susceptibility to the AMP ([1]; Proteus mirabilis, ref http://www.ncbi.nlm.nih.gov/pmc/articles/PMC517467/pdf/0713-04.pdf): zapA
- Gene that modulates bacterial susceptibility to the AMP ([1]; Pseudomonas aeruginosa, ref http://portal.research.lu.se/portal/files/2657079/623699.pdf): lasA, IsaB
- Gene that modulates bacterial susceptibility to the AMP ([1]; Salmonella typhimurium, Escherichia coli, ref https://www.ncbi.nlm.nih.gov/pmc/articles/PMC3037666/, https://www.ncbi.nlm.nih.gov/pmc/articles/PMC4808223/): amiA, amiC
- Gene that modulates bacterial susceptibility to the AMP ([1]; Salmonella typhimurium, ref http://www.sciencedirect.com/science/article/pii/S1368764616300024): waaY
- Gene that modulates bacterial susceptibility to the AMP ([1]; Staphylococcus aureus, ref http://aac.asm.org/content/48/12/4673.full.pdf+html): aur (aureolysin)
- Gene that modulates bacterial susceptibility to the AMP [1, 5]: apsS
- Gene that modulates bacterial susceptibility to the AMP ([1]; Streptococcus pyogenes, ref http://www.jbc.org/content/279/51/52820.full.pdf): speB
- Gene that modulates bacterial susceptibility to the AMP [1]: pgtE and pla
- Average relative change in MIC ([2]; mlaD deletion strain relative to control (E. coli BW25113), 3 replicates each, from optical density values of serial dilution plates, AMP in µg ml-1): 2.25
- Relative change in MIC (MIC of the AMP-adpated line / MIC of the ancestral strain) ([3]; AMP-adapted line BAC5_3): 1
- Relative change in MIC (MIC of the AMP-adpated line / MIC of the ancestral strain) ([3]; AMP-adapted line BAC5_5): 1.2
- Relative change in MIC (MIC of the AMP-adpated line / MIC of the ancestral strain) ([3]; AMP-adapted line BAC5_7): 1.1
- Relative change in MIC (MIC of the AMP-adpated line / MIC of the ancestral strain) ([3]; AMP-adapted line BAC5_10): 1.1
- Relative change in MIC (MIC of the AMP-adpated line / MIC of the ancestral strain) ([3]; AMP-adapted line CAP18_2): 6.3
- Relative change in MIC (MIC of the AMP-adpated line / MIC of the ancestral strain) ([3]; AMP-adapted line CAP18_5): 3.7
- Relative change in MIC (MIC of the AMP-adpated line / MIC of the ancestral strain) ([3]; AMP-adapted line CAP18_6): 1.2
- Relative change in MIC (MIC of the AMP-adpated line / MIC of the ancestral strain) ([3]; AMP-adapted line CAP18_8): 6.3
- Relative change in MIC (MIC of the AMP-adpated line / MIC of the ancestral strain) ([3]; AMP-adapted line CAP18_10): 8.2
- Relative change in MIC (MIC of the AMP-adpated line / MIC of the ancestral strain) ([3]; AMP-adapted line HBD3_3): 1.7
- Relative change in MIC (MIC of the AMP-adpated line / MIC of the ancestral strain) ([3]; AMP-adapted line HBD3_6): 1.2
- Relative change in MIC (MIC of the AMP-adpated line / MIC of the ancestral strain) ([3]; AMP-adapted line HBD3_8): 1.7
- Relative change in MIC (MIC of the AMP-adpated line / MIC of the ancestral strain) ([3]; AMP-adapted line HBD3_10): 1.7
- Relative change in MIC (MIC of the AMP-adpated line / MIC of the ancestral strain) ([3]; AMP-adapted line PEX_1): 1.1
- Relative change in MIC (MIC of the AMP-adpated line / MIC of the ancestral strain) ([3]; AMP-adapted line PEX_4): 16
- Relative change in MIC (MIC of the AMP-adpated line / MIC of the ancestral strain) ([3]; AMP-adapted line PEX_5): 0.9
- Relative change in MIC (MIC of the AMP-adpated line / MIC of the ancestral strain) ([3]; AMP-adapted line PEX_6): 1
- Relative change in MIC (MIC of the AMP-adpated line / MIC of the ancestral strain) ([3]; AMP-adapted line PEX_7): 1
- Relative change in MIC (MIC of the AMP-adpated line / MIC of the ancestral strain) ([3]; AMP-adapted line PR39_1): 1.2
- Relative change in MIC (MIC of the AMP-adpated line / MIC of the ancestral strain) ([3]; AMP-adapted line PR39_2): 1.2
- Relative change in MIC (MIC of the AMP-adpated line / MIC of the ancestral strain) ([3]; AMP-adapted line PR39_5): 0.9
- Relative change in MIC (MIC of the AMP-adpated line / MIC of the ancestral strain) ([3]; AMP-adapted line PR39_7): 1
- Relative change in MIC (MIC of the AMP-adpated line / MIC of the ancestral strain) ([3]; AMP-adapted line PR39_10): 0.8
- Relative change in MIC (MIC of the AMP-adpated line / MIC of the ancestral strain) ([3]; AMP-adapted line PROA_2): 1
- Relative change in MIC (MIC of the AMP-adpated line / MIC of the ancestral strain) ([3]; AMP-adapted line PROA_3): 0.8
- Relative change in MIC (MIC of the AMP-adpated line / MIC of the ancestral strain) ([3]; AMP-adapted line PROA_7): 0.9
- Relative change in MIC (MIC of the AMP-adpated line / MIC of the ancestral strain) ([3]; AMP-adapted line PROA_8): 1
- Relative change in MIC (MIC of the AMP-adpated line / MIC of the ancestral strain) ([3]; AMP-adapted line PROA_9): 0.9
- Relative change in MIC (MIC of the AMP-adpated line / MIC of the ancestral strain) ([3]; AMP-adapted line PXB_2): 1
- Relative change in MIC (MIC of the AMP-adpated line / MIC of the ancestral strain) ([3]; AMP-adapted line PXB_5): 0.9
- Relative change in MIC (MIC of the AMP-adpated line / MIC of the ancestral strain) ([3]; AMP-adapted line PXB_6): 1
- Relative change in MIC (MIC of the AMP-adpated line / MIC of the ancestral strain) ([3]; AMP-adapted line PXB_8): 1
- Relative change in MIC (MIC of the AMP-adpated line / MIC of the ancestral strain) ([3]; AMP-adapted line PXB_10): 1

Sequence: ILPWKWPWWPWRR [IND, Indolicidin, antimicrobial peptide from bovine neutrophils; cluster C3]
- Gene that modulates bacterial susceptibility to the AMP [1, 4]: lgmA, IgmB, IgmC
- Gene that modulates bacterial susceptibility to the AMP [1, 5]: apsS
- Average relative change in MIC ([2]; mlaD deletion strain vs control E. coli BW25113, average of 3 replicates): 0.71
- Relative change in MIC (MIC of the AMP-adpated line / MIC of the ancestral strain) ([3]; AMP-adapted line BAC5_3): 1.2
- Relative change in MIC (MIC of the AMP-adpated line / MIC of the ancestral strain) ([3]; AMP-adapted line BAC5_5): 0.8
- Relative change in MIC (MIC of the AMP-adpated line / MIC of the ancestral strain) ([3]; AMP-adapted line BAC5_7): 0.9
- Relative change in MIC (MIC of the AMP-adpated line / MIC of the ancestral strain) ([3]; AMP-adapted line BAC5_10): 1
- Relative change in MIC (MIC of the AMP-adpated line / MIC of the ancestral strain) ([3]; AMP-adapted line CAP18_2): 1
- Relative change in MIC (MIC of the AMP-adpated line / MIC of the ancestral strain) ([3]; AMP-adapted line CAP18_5): 0.6
- Relative change in MIC (MIC of the AMP-adpated line / MIC of the ancestral strain) ([3]; AMP-adapted line CAP18_6): 0.6
- Relative change in MIC (MIC of the AMP-adpated line / MIC of the ancestral strain) ([3]; AMP-adapted line CAP18_8): 1
- Relative change in MIC (MIC of the AMP-adpated line / MIC of the ancestral strain) ([3]; AMP-adapted line CAP18_10): 0.8
- Relative change in MIC (MIC of the AMP-adpated line / MIC of the ancestral strain) ([3]; AMP-adapted line HBD3_3): 1.3
- Relative change in MIC (MIC of the AMP-adpated line / MIC of the ancestral strain) ([3]; AMP-adapted line HBD3_6): 1
- Relative change in MIC (MIC of the AMP-adpated line / MIC of the ancestral strain) ([3]; AMP-adapted line HBD3_8): 0.8
- Relative change in MIC (MIC of the AMP-adpated line / MIC of the ancestral strain) ([3]; AMP-adapted line HBD3_10): 1.2
- Relative change in MIC (MIC of the AMP-adpated line / MIC of the ancestral strain) ([3]; AMP-adapted line LL37_1): 0.8
- Relative change in MIC (MIC of the AMP-adpated line / MIC of the ancestral strain) ([3]; AMP-adapted line LL37_3): 0.8
- Relative change in MIC (MIC of the AMP-adpated line / MIC of the ancestral strain) ([3]; AMP-adapted line LL37_6): 0.6
- Relative change in MIC (MIC of the AMP-adpated line / MIC of the ancestral strain) ([3]; AMP-adapted line LL37_7): 1
- Relative change in MIC (MIC of the AMP-adpated line / MIC of the ancestral strain) ([3]; AMP-adapted line LL37_10): 0.8
- Relative change in MIC (MIC of the AMP-adpated line / MIC of the ancestral strain) ([3]; AMP-adapted line PEX_1): 1
- Relative change in MIC (MIC of the AMP-adpated line / MIC of the ancestral strain) ([3]; AMP-adapted line PEX_4): 1.4
- Relative change in MIC (MIC of the AMP-adpated line / MIC of the ancestral strain) ([3]; AMP-adapted line PEX_5): 1
- Relative change in MIC (MIC of the AMP-adpated line / MIC of the ancestral strain) ([3]; AMP-adapted line PEX_6): 1
- Relative change in MIC (MIC of the AMP-adpated line / MIC of the ancestral strain) ([3]; AMP-adapted line PEX_7): 1.2
- Relative change in MIC (MIC of the AMP-adpated line / MIC of the ancestral strain) ([3]; AMP-adapted line PR39_1): 1.1
- Relative change in MIC (MIC of the AMP-adpated line / MIC of the ancestral strain) ([3]; AMP-adapted line PR39_2): 1
- Relative change in MIC (MIC of the AMP-adpated line / MIC of the ancestral strain) ([3]; AMP-adapted line PR39_5): 1.3
- Relative change in MIC (MIC of the AMP-adpated line / MIC of the ancestral strain) ([3]; AMP-adapted line PR39_7): 0.9
- Relative change in MIC (MIC of the AMP-adpated line / MIC of the ancestral strain) ([3]; AMP-adapted line PROA_2): 1.1
- Relative change in MIC (MIC of the AMP-adpated line / MIC of the ancestral strain) ([3]; AMP-adapted line PROA_3): 0.8
- Relative change in MIC (MIC of the AMP-adpated line / MIC of the ancestral strain) ([3]; AMP-adapted line PROA_7): 0.8
- Relative change in MIC (MIC of the AMP-adpated line / MIC of the ancestral strain) ([3]; AMP-adapted line PROA_8): 1.1
- Relative change in MIC (MIC of the AMP-adpated line / MIC of the ancestral strain) ([3]; AMP-adapted line PROA_9): 1
- Relative change in MIC (MIC of the AMP-adpated line / MIC of the ancestral strain) ([3]; AMP-adapted line PXB_2): 2.1
- Relative change in MIC (MIC of the AMP-adpated line / MIC of the ancestral strain) ([3]; AMP-adapted line PXB_5): 3
- Relative change in MIC (MIC of the AMP-adpated line / MIC of the ancestral strain) ([3]; AMP-adapted line PXB_6): 3
- Relative change in MIC (MIC of the AMP-adpated line / MIC of the ancestral strain) ([3]; AMP-adapted line PXB_8): 2.7
- Relative change in MIC (MIC of the AMP-adpated line / MIC of the ancestral strain) ([3]; AMP-adapted line PXB_10): 1.6
